Measured values taken from US20150366890A1, “COMPOSITIONS AND METHODS FOR TREATING FUNGAL INFECTIONS” (TRUSTEES OF BOSTON UNIVERSITY, priority 2013, published 2015).

Key:
Format in all cases: cell-based
C. albicans [1] = assay: Metabolomic profiling of intracellular metabolites (Metabolon)
Protocol: The results described herein link AF treatment to distinct changes in intracellular metabolic activity as part of an induced common killing mechanism. To further explore the role of metabolism in AF-induced cellular death, the effect of AF treatment on the intracellular metabolome of C. albicans was measured. To do so, a platform for metabolite detection and relative quantification from Metabolon Inc. (Durham, USA) (Evans et al., 2009) was utilized. Exponentially growing C. albicans cells were treated with AFs and samples collected for metabolomic analysis after 1.5 hours of treatment, a time point when it was expected that at least 90% of cells contributing to the metabolite pool would be irreversibly committed to the death pathway (FIGS. 7A-7D).
C. albicans cells were lysed and assayed by Metabolon Inc. (Durham, USA) as previously described (Shakoury-Elizeh et al., 2010). ATP and AMP were extracted as previously described (Walther et al., 2010) and analyzed by HPLC. This procedure is more fully described elsewhere herein.
C. albicans cells were incubated in 100 ml of SDC in 250 ml flasks at 37° C. and 300 rpm. Cells were exposed to AFs at an OD600 of 0.2, and cellular pellets from 100 ml of media were collected after 1.5 h of treatment. Cells were lysed and assayed by Metabolon Inc. (Durham, USA) as previously described (Evans et al., 2009; Shakoury-Elizeh et al., 2010).

C. albicans [2] = assay: ROS formation by HPF fluorescence (flow cytometry); conditions: wildtype C. albicans, SDC, after 1.5 hours of treatment (CAS 0.5 μg/ml)
Protocol: (§1) The formation of ROS following AF treatment in yeast was measured using the dye 3′-(p-hydroxyphenyl) fluorescein (HPF), which is preferentially oxidized by intracellular hydroxyl radicals into a fluorescent product (Kohanski et al., 2007). Exponentially growing wildtype S. cerevisiae and C. albicans were treated in synthetic dextrose complete (SDC) medium with the minimum concentration of fungicide required to achieve at least a 90% reduction in colony forming units (CFU) after three hours of exposure. As a positive control, cells were also treated with H2O2, a potent inducer of hydroxyl radical formation (Perrone et al., 2008).
(§2) Overnight yeast cultures were diluted into the indicated media and grown to an OD600 of 0.2, at which point the AFs were added. Colony forming units (CFU) were measured by plating six serial dilutions onto YPD agar plates. Cells treated with MCZ were washed before serial dilution to stop growth inhibition associated with high concentrations of MCZ. CFU were counted after three days of incubation on agar plates. When indicated, thiourea (Fluka) was added 30 min prior to the addition of AFs. HPF (10 μM) (Invitrogen) and Mito Tracker (1 μM) (Invitrogen) dyes were added to PBS-washed cells at the indicated time points and incubated for 30 min prior to flow cytometry measurements, which were taken on the FACSCalibur (Becton-Dickinson). All experiments described in this section were conducted in 0.5 ml of SDC in 24-well plates incubated at 900 rpm and 37° C. for C. albicans and 30° C. and 300 rpm for S. cerevisiae. TUNEL assays were conducted as previously described (Ribeiro et al., 2006) and are described in detail in the TUNEL section of the Experimental Procedures.

C. albicans [3] = assay: TUNEL assay of DNA strand breaks (flow cytometry); conditions: after 2 hours of treatment
Protocol: The terminal deoxynucleotidyl transferase dUTP nick-end labeling (TUNEL) assay was used to quantify the relative abundance of DSBs in C. albicans cells treated with AFs and H2O2. The TUNEL reagent fluorescently labels both double- and single-strand DNA breaks (Ribeiro et al., 2006).
DNA strand breaks were fluorescently labeled with TUNEL reagent from the “In Situ Cell Death Detection Kit”, Roche (Mannheim, Germany). After 2 hours of treatment 5 ml of OD 0.2 cells were fixed with 3.7% formaldehyde for 30 min at room temperature, and then washed with digestion buffer consisting of 10 mM Mes pH 6.5 and 1 M sorbitol. Cell were digested for 45 min at 30° C. with 2 U of Yeast Lytic Enzyme, MP Biomedicals, (Irvine, Calif.) in 50 μl of digestion buffer. Cells were then washed in PBS with 1 M sorbitol and resuspended in permeabilization solution consisting of 0.1% Triton X-100 and 0.1% sodium citrate and 1 M sorbitol for 10 min at room temperature. Cell were again washed in PBS with 1 M sorbitol and labeled for 60 min with 10 μl of TUNEL reaction mixture. Cells were then again washed in PBS with 1 M sorbitol and resuspended in sheath fluid. Mean relative florescence was measured by flow cytometry on the FACSCalibur (Becton-Dickinson).

S. cerevisiae = assay: ROS formation by HPF fluorescence (flow cytometry); conditions: wildtype S. cerevisiae, SDC, after 1.5 hours of treatment
Protocol: as §1, §2

[4] = tested on: S. cerevisiae wildtype and deletion strains; conditions: S. cerevisiae, 3 hours of drug exposure

| SMILES | intracellular sugars (fructose, mannose, trehalose) abundance vs control (C. albicans [1]; 1.5 hours of treatment) | fermentative waste products (2,3-butanediol and glycerol) (C. albicans [1]; 1.5 hours of treatment, vs untreated) | metabolic changes compared with those induced by AMB, MCZ and CIC (C. albicans [1]; CAS 0.5 μg/ml, 1.5 hours) | HPF fluorescence (formation of ROS) (C. albicans [2]) | TUNEL relative fluorescence (DNA breaks) (C. albicans [3]) | HPF fluorescence (formation of ROS) (S. cerevisiae) | susceptibility of rad50 and rad52 knockouts vs wildtype [4] |
| --- | --- | --- | --- | --- | --- | --- | --- |
| CC[C@H](C)C[C@H](C)CCCCCCCCC(=O)N[C@H]1C[C@@H](O)[C@@H](NCCN)NC(=O)[C@@H]2[C@@H](O)CCN2C(=O)[C@H]([C@H](O)CCN)NC(=O)[C@H]([C@H](O)[C@@H](O)c2ccc(O)cc2)NC(=O)[C@@H]2C[C@@H](O)CN2C(=O)[C@H]([C@@H](C)O)NC1=O [caspofungin] | elevation of sugars | reduction in fermentative byproducts | similar | elevated ROS levels |  |  |  |
| OO [H2O2] |  |  |  | dramatic induction of HPF fluorescence | elevated relative fluorescence | dramatic induction of HPF fluorescence | considerably more susceptible |
